Experimental findings from patent US20040156869A1, “2-substituted quinazolin-4-ylamine analogues” (Neurogen Corporation, priority 2002, published 2004) are described below.

Where only a bound is given, the exact number is not on record here.

The target of the test is human capsaicin receptor (VR1) (Homo sapiens, UniProt Q8NER1). Description: Capsaicin receptor binding assay ([3H]RTX competition, VR1-transfected HEK293 membranes).
human capsaicin receptor (VR1), sequence (Q8NER1 whole entry): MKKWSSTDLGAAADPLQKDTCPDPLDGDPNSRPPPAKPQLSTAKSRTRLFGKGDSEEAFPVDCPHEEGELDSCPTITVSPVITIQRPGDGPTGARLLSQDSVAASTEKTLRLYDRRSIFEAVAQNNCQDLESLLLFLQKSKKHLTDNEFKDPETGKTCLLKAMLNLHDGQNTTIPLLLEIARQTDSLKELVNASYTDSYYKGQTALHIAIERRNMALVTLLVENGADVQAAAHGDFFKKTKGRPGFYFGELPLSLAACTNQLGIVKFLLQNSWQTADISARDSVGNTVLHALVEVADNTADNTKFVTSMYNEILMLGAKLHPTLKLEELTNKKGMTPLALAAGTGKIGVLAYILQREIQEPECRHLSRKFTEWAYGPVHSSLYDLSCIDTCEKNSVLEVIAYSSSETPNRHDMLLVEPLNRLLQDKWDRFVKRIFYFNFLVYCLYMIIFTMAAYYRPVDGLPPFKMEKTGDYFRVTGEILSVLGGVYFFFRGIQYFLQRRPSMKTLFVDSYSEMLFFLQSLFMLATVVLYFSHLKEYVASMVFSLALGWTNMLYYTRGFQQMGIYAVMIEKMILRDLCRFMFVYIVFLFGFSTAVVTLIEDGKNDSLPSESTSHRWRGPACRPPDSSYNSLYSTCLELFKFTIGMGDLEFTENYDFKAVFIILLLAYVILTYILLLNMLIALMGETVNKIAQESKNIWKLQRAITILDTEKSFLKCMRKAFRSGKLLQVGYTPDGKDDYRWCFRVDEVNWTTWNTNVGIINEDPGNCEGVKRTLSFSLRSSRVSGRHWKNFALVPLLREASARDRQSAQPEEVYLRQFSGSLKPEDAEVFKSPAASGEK
Broadly, the Ki is a dissociation constant, usually derived from enzyme kinetics or from competition with a known ligand. For `COCc1nc(Nc2ccc(S(=O)(=O)N3CCOCC3)cc2)c2ccc(-c3ncccc3C(F)(F)F)nc2n1` [Compound 114, [2-Methoxymethyl-7-(3-trifluoromethyl-pyridin-2-yl)-pyrido[2,3-d]pyrimidin-4-yl]-[4-(morpholine-4-sulfonyl)-phenyl]-amine], the Ki is < 1 µM. In the case of `CCN(CC)CCCOCc1nc(Nc2ccc(C(F)(F)F)cc2)c2ccc(-c3ncccc3C(F)(F)F)cc2n1` [Compound 115, [2-(3-Diethylamino-propoxymethyl)-7-(3-trifluoromethyl-pyridin-2-yl)-quinazolin-4-yl]-(4-trifluoromethyl-phenyl)-amine], the Ki is < 1 µM. On to `CN(C)CCCOCc1nc(Nc2ccc(C(C)(C)C)cc2)c2ccc(-c3ncccc3C(F)(F)F)cc2n1` [Compound 116, (4-tert-Butyl-phenyl)-[2-(3-dimethylamino-propoxymethyl)-7-(3-trifluoromethyl-pyridin-2-yl)-quinazolin-4-yl]-amine], for which the inhibition constant Ki was < 1 µM.

For `CCN(CC)CCCOCc1nc(Nc2ccc(C(C)(C)C)cc2)c2ccc(-c3ncccc3C(F)(F)F)cc2n1` [Compound 117, (4-tert-Butyl-phenyl)-[2-(3-diethylamino-propoxymethyl)-7-(3-trifluoromethyl-pyridin-2-yl)-quinazolin-4-yl]-amine], the Ki is < 1 µM. In the case of `COCc1nc(Nc2ccc(C3CC3)cc2)c2ccc(-c3ncccc3C(F)(F)F)cc2n1` [Compound 118, (4-Cyclopropyl-phenyl)-[2-methoxymethyl-7-(3-trifluoromethyl-pyridin-2-yl)-quinazolin-4-yl]-amine], the inhibitory constant (Ki) was < 1 µM. Consider `Cc1cccnc1-c1ccc2c(Nc3ccc(C(F)(F)F)cc3)nc(CO)nc2n1` [Compound 119, [7-(3-Methyl-pyridin-2-yl)-4-(4-trifluoromethyl-phenylamino)-pyrido[2,3-d]pyrimidin-2-yl]-methanol], for which the Ki is < 1 µM. With `COCc1nc(Nc2ccc(S(=O)(=O)N3CCOCC3)cc2)c2ncc(-c3ncccc3Cl)cc2n1` [Compound 120, [7-(3-Chloro-pyridin-2-yl)-2-methoxymethyl-pyrido[3,2-d]pyrimidin-4-yl]-[4-(morpholine-4-sulfonyl)-phenyl]-amine], the Ki was < 1 µM.

With `OCc1nc(Nc2ccc(C(F)(F)F)cc2)c2ncc(-c3ncccc3C(F)(F)F)cc2n1` [Compound 121, [4-(4-Trifluoromethyl-phenylamino)-7-(3-trifluoromethyl-pyridin-2-yl)-pyrido[3,2-d]pyrimidin-2-yl]-methanol], the Ki is < 1 µM. On to `OCc1nc(Nc2ccc(C(F)(F)F)cc2)c2ncc(-c3ncccc3Cl)cc2n1` [Compound 122, [7-(3-Chloro-pyridin-2-yl)-4-(4-trifluoromethyl-phenylamino)-pyrido[3,2-d]pyrimidin-2-yl]-methanol], for which the inhibition constant (Ki) was < 1 µM. Regarding `CN(C)CC(C)(C)COCc1nc(Nc2ccc(C(F)(F)F)cc2)c2ccc(-c3ncccc3C(F)(F)F)cc2n1` [Compound 123, [2-(3-Dimethylamino-2,2-dimethyl-propoxymethyl)-7-(3-trifluoromethyl-pyridin-2-yl)-quinazolin-4-yl]-(4-trifluoromethyl-phenyl)-amine], the inhibition constant (Ki) is < 1 µM. As to `CC(C)(C)c1ccc(Nc2nc(COCCCN3CCOCC3)nc3cc(-c4ncccc4C(F)(F)F)ccc23)cc1` [Compound 124, (4-tert-Butyl-phenyl)-[2-(3-morpholin-4-yl-propoxymethyl)-7-(3-trifluoromethyl-pyridin-2-yl)-quinazolin-4-yl]-amine], the Ki was < 1 µM. `CC(C)(C)c1ccc(Nc2nc(COCCCCN3CCOCC3)nc3cc(-c4ncccc4C(F)(F)F)ccc23)cc1` [Compound 125, (4-tert-Butyl-phenyl)-[2-(4-morpholin-4-yl-butoxymethyl)-7-(3-trifluoromethyl-pyridin-2-yl)-quinazolin-4-yl]-amine]: the inhibitory constant (Ki) was < 1 µM. `COCc1nc(Nc2ccc(S(=O)(=O)N3CCOCC3)cc2)c2ccc(-c3ncccc3C(F)(F)F)cc2n1` [Compound 126, [2-Methoxymethyl-7-(3-trifluoromethyl-pyridin-2-yl)-quinazolin-4-yl]-[4-(morpholine-4-sulfonyl)-phenyl]-amine]: the Ki is < 1 µM. For `CCOCc1nc(Nc2ccc(S(=O)(=O)N3CCOCC3)cc2)c2ccc(-c3ncccc3C(F)(F)F)cc2n1` [Compound 127, [2-Ethoxymethyl-7-(3-trifluoromethyl-pyridin-2-yl)-quinazolin-4-yl]-[4-(morpholine-4-sulfonyl)-phenyl]-amine], the Ki was < 1 µM. As to `CC(C)OCc1nc(Nc2ccc(S(=O)(=O)N3CCOCC3)cc2)c2ccc(-c3ncccc3C(F)(F)F)cc2n1` [Compound 128, [2-Isopropoxymethyl-7-(3-trifluoromethyl-pyridin-2-yl)-quinazolin-4-yl]-[4-(morpholine-4-sulfonyl)-phenyl]-amine], the inhibition constant (Ki) was < 1 µM. In the case of `Cc1cccnc1-c1ccc2c(Nc3ccc(C(C)(C)C)cc3)nc(COCC(C)C)nc2n1` [Compound 129, (4-tert-Butyl-phenyl)-[2-isobutoxymethyl-7-(3-methyl-pyridin-2-yl)-pyrido[2,3-d]pyrimidin-4-yl]-amine], the inhibition constant Ki was < 1 µM.

Turning to `Cc1cccnc1-c1ccc2c(Nc3ccc(C(C)C)cc3)nc(COCC(C)C)nc2n1` [Compound 130, [2-Isobutoxymethyl-7-(3-methyl-pyridin-2-yl)-pyrido[2,3-d]pyrimidin-4-yl]-(4-isopropyl-phenyl)-amine], the Ki was < 1 µM.

On to `Cc1cccnc1-c1ccc2c(Nc3ccc(C(F)(F)F)cc3)nc(COCC(C)C)nc2n1` [Compound 131, [2-Isobutoxymethyl-7-(3-methyl-pyridin-2-yl)-pyrido[2,3-d]pyrimidin-4-yl]-(4-trifluoromethyl-phenyl)-amine], for which the Ki was < 1 µM. As to `CCOCc1nc(Nc2ccc(C(C)(C)C)cc2)c2ccc(-c3ncccc3Cl)nc2n1` [Compound 132, (4-tert-Butyl-phenyl)-[7-(3-chloro-pyridin-2-yl)-2-ethoxymethyl-pyrido[2,3-d]pyrimidin-4-yl]-amine], the inhibitory constant (Ki) is < 1 µM.

Regarding `CCOCc1nc(Nc2ccc(C(C)C)cc2)c2ccc(-c3ncccc3Cl)nc2n1` [Compound 133, [7-(3-Chloro-pyridin-2-yl)-2-ethoxymethyl-pyrido[2,3-d]pyrimidin-4-yl]-(4-isopropyl-phenyl)-amine], the Ki is < 1 µM. With `CCOCc1nc(Nc2ccc(C(F)(F)F)cc2)c2ccc(-c3ncccc3Cl)nc2n1` [Compound 134, [7-(3-Chloro-pyridin-2-yl)-2-ethoxymethyl-pyrido[2,3-d]pyrimidin-4-yl]-(4-trifluoromethyl-phenyl)-amine] the figure was < 1 µM. For `CCOCc1nc(Nc2ccc(S(=O)(=O)C(F)(F)F)cc2)c2ccc(-c3ncccc3Cl)nc2n1` [Compound 135, [7-(3-Chloro-pyridin-2-yl)-2-ethoxymethyl-pyrido[2,3-d]pyrimidin-4-yl]-(4-trifluoromethanesulfonyl-phenyl)-amine], the inhibitory constant (Ki) was < 1 µM. With `CCOCc1nc(Nc2ccc(C(C)C(F)(F)F)cc2)c2ccc(-c3ncccc3Cl)nc2n1` (centres unmarked) [Compound 136, [7-(3-Chloro-pyridin-2-yl)-2-ethoxymethyl-pyrido[2,3-d]pyrimidin-4-yl]-[4-(2,2,2-trifluoro-1-methyl-ethyl)-phenyl]-amine] the figure was < 1 µM. As for `CCOCc1nc(Nc2ccc(C3CCCC3)cc2)c2ccc(-c3ncccc3Cl)nc2n1` [Compound 137, [7-(3-Chloro-pyridin-2-yl)-2-ethoxymethyl-pyrido[2,3-d]pyrimidin-4-yl]-(4-cyclopentyl-phenyl)-amine], the Ki is < 1 µM. In the case of `CCOCc1nc(Nc2ccc(C(F)(F)F)cc2)c2ccc(-c3ncccc3C)nc2n1` [Compound 138, [2-Ethoxymethyl-7-(3-methyl-pyridin-2-yl)-pyrido[2,3-d]pyrimidin-4-yl]-(4-trifluoromethyl-phenyl)-amine], the inhibition constant Ki was < 1 µM. With `CCOCc1nc(Nc2ccc(C(C)C)cc2)c2ccc(-c3ncccc3C)nc2n1` [Compound 139, [2-Ethoxymethyl-7-(3-methyl-pyridin-2-yl)-pyrido[2,3-d]pyrimidin-4-yl]-(4-isopropyl-phenyl)-amine], the Ki is < 1 µM. `CCOCc1nc(Nc2ccc(S(=O)(=O)C(F)(F)F)cc2)c2ccc(-c3ncccc3C)nc2n1` [Compound 140, [2-Ethoxymethyl-7-(3-methyl-pyridin-2-yl)-pyrido[2,3-d]pyrimidin-4-yl]-(4-trifluoromethanesulfonyl-phenyl)-amine]: the inhibition constant Ki was < 1 µM. `O=S(=O)(c1ccc(Nc2nc(COC3CCOCC3)nc3cc(-c4ncccc4C(F)(F)F)ccc23)cc1)N1CCOCC1` [Compound 141, [4-(Morpholine-4-sulfonyl)-phenyl]-[2-(tetrahydro-pyran-4-yloxymethyl)-7-(3-trifluoromethyl-pyridin-2-yl)-quinazolin-4-yl]-amine]: the inhibition constant (Ki) was < 1 µM. For the compound `O=S(=O)(c1ccc(Nc2nc(COCC3CC3)nc3cc(-c4ncccc4C(F)(F)F)ccc23)cc1)N1CCOCC1` [Compound 142, [2-Cyclopropylmethoxymethyl-7-(3-trifluoromethyl-pyridin-2-yl)-quinazolin-4-yl]-[4-(morpholine-4-sulfonyl)-phenyl]-amine], the Ki is < 1 µM. On to `O=S(=O)(c1ccc(Nc2nc(COC3CCCC3)nc3cc(-c4ncccc4C(F)(F)F)ccc23)cc1)N1CCOCC1` [Compound 143, [2-Cyclopentyloxymethyl-7-(3-trifluoromethyl-pyridin-2-yl)-quinazolin-4-yl]-[4-(morpholine-4-sulfonyl)-phenyl]-amine], for which the inhibitory constant (Ki) was < 1 µM. With `CN(C)CC(O)COCc1nc(Nc2ccc(C(F)(F)F)cc2)c2ccc(-c3ncccc3C(F)(F)F)cc2n1` (centres unmarked) [Compound 144, 1-Dimethylamino-3-[4-(4-trifluoromethyl-phenylamino)-7-(3-trifluoromethyl-pyridin-2-yl)-quinazolin-2-ylmethoxy]-propan-2-ol] the figure was < 1 µM; with `CCN(CC)CC[C@@H](C)OCc1nc(Nc2ccc(C(C)(C)C)cc2)c2ccc(-c3ncccc3C(F)(F)F)cc2n1` [Compound 145, (4-tert-Butyl-phenyl)-[2-(3-diethylamino-1-methyl-propoxymethyl)-7-(3-trifluoromethyl-pyridin-2-yl)-quinazolin-4-yl]-amine], < 1 µM.
